Measurements as given in US9040067B2, “Disinfecting and antimicrobial compositions” (priority 2005, dated 2015).

Legend:
Saccharomyces cerevisiae = assay: MIC and MLC against yeast in Sab. broth; format: cell-based; conditions: for Lethal (MLC) Concentration 1% / Inhibitory (MIC) Concentration 1%: 1% ester; for Lethal (MLC) Concentration 1.5% / Inhibitory (MIC) Concentration 1.5%: 1.5% ester; for Lethal (MLC) Concentration 2% / Inhibitory (MIC) Concentration 2%: 2% ester; for Lethal (MLC) Concentration 3% / Inhibitory (MIC) Concentration 3%: 3% ester; for Lethal (MLC) Concentration 4% / Inhibitory (MIC) Concentration 4%: 4% ester; for Lethal (MLC) Concentration 1%: key: + = growth (inactive); − = no growth (active); for Lethal (MLC) Concentration 1.5%: key: + = growth (inactive); − = no growth (active); for Lethal (MLC) Concentration 2%: key: + = growth (inactive); − = no growth (active); for Lethal (MLC) Concentration 3%: key: + = growth (inactive); − = no growth (active); for Lethal (MLC) Concentration 4%: key: + = growth (inactive); − = no growth (active)
Description: A 0.1 ml of 1/100 dilution of 48 hr old culture of S. cerevisiae was used as inoculum. The test was performed using Sab. broth. The tubes were incubated at room temperature 25° C. The test was read after 48 hrs.

Pseudomonas aeruginosa = assay: MIC/MLC in brain heart infusion broth; format: cell-based; conditions: for MIC, Concentration of Lactic Esters 0.5%: 0.5% ester; for MIC, Concentration of Lactic Esters 1%: 1% ester; for MIC, Concentration of Lactic Esters 2%: 2% ester; for MIC, Concentration of Lactic Esters 3%: 3% ester; for MIC, Concentration of Lactic Esters 4%: 4% ester; for MIC, Concentration of Lactic Esters 5%: 5% ester; for MIC, Concentration of Lactic Esters 0.5%: key: + = growth (inactive); − = no growth (active); for MIC, Concentration of Lactic Esters 1%: key: + = growth (inactive); − = no growth (active); for MIC, Concentration of Lactic Esters 2%: key: + = growth (inactive); − = no growth (active); for MIC, Concentration of Lactic Esters 3%: key: + = growth (inactive); − = no growth (active); for MIC, Concentration of Lactic Esters 4%: key: + = growth (inactive); − = no growth (active); for MIC, Concentration of Lactic Esters 5%: key: + = growth (inactive); − = no growth (active)
Description: (§1) The tests were carried out in 10 ml of brain heart infusion broth. The esters were serially diluted in brain heart infusion broth of samples of, 0.1, 0.2, 0.3, 0.4 and 0.5/10 ml and challenged with 0.1 ml of 1/100 dilution of 24 hr old brain heart infusion bacterial culture. The lowest concentration determined the minimum inhibitory concentration (MIC). The samples were observed after 48 hrs at 37° C. A loopful from tubes without growth were plated on BHI agar plates and observed for growth for 24 to 48 hrs at 37° C. The samples with the lowest concentration of the ester without bacterial growth on the plates represented the minimum lethal concentration (MLC).
(§2) A series of samples of (a) methyl lactate, (b) ethyl lactate and (c) butyl lactate, alone, and in admixture with varying amounts of decyl lactate and sodium dodecyl sulfates were used to test minimum inhibitory activity (MIC) by the method described in Example II, against the cultures of E. coli 0157 H7, Listeria monocytogenes, Staphylococcus aureus, Salmonella typhi, and Pseudomonas aeruginosa.

Listeria monocytogenes = assay: MIC/MLC in brain heart infusion broth; format: cell-based
Description: as §1, §2

E. coli 0157;H7 = assay: MIC/MLC in brain heart infusion broth; format: cell-based; note: key: + = growth (inactive); − = no growth (active)
Description: as §1, §2

Salmonella typhi = assay: MIC in brain heart infusion broth; format: cell-based; conditions: Table 4; note: key: + = growth (inactive); − = no growth (active)
Description: as §1, §2

Staphylococcus aureus = assay: MIC/MLC in brain heart infusion broth; format: cell-based
Description: as §1, with “The esters were serially diluted in brain heart infusion broth of samples of, 0.1, 0.2, 0.3, 0.4 and 0.5/10 ml and challenged with 0.1 ml of 1/100 dilution of 24 hr old brain heart infusion bacterial culture.” left out
as §2

Salmonella typhimurium = assay: MIC/MLC in brain heart infusion broth; format: cell-based
Description: as §1

[1] = Solubilization of dehydroacetic acid by ethyl lactate; format: physicochemical; conditions: 5.0 parts of dehydroacetic acid in 100 ml of ethyl lactate, room temperature
[2] = 1%, second MLC line of organism
[3] = 2%, second MLC line of organism
[4] = 3%, second MLC line of organism
[5] = 4%, second MLC line of organism
[6] = 5%, second MLC line of organism

CCOC(=O)C(C)O (centres unmarked) [Ethyl lactate, ethyl lactate]
−: Inhibitory (MIC) Concentration 1.5% (Saccharomyces cerevisiae; 48 hrs, 25° C) | Inhibitory (MIC) Concentration 1.5% (Saccharomyces cerevisiae; Sodium lauryl sulfate 200 ppm) | Lethal (MLC) Concentration 2% (Saccharomyces cerevisiae) | Inhibitory (MIC) Concentration 2% (Saccharomyces cerevisiae; 48 hrs, 25° C) | Inhibitory (MIC) Concentration 2% (Saccharomyces cerevisiae; Sodium lauryl sulfate 200 ppm) | Lethal (MLC) Concentration 2% (Saccharomyces cerevisiae; Sodium lauryl sulfate 200 ppm) | Lethal (MLC) Concentration 3% (Saccharomyces cerevisiae) | Inhibitory (MIC) Concentration 3% (Saccharomyces cerevisiae; 48 hrs, 25° C) | Inhibitory (MIC) Concentration 3% (Saccharomyces cerevisiae; Sodium lauryl sulfate 200 ppm) | Lethal (MLC) Concentration 3% (Saccharomyces cerevisiae; Sodium lauryl sulfate 200 ppm) | Lethal (MLC) Concentration 4% (Saccharomyces cerevisiae) | Inhibitory (MIC) Concentration 4% (Saccharomyces cerevisiae; 48 hrs, 25° C) | Inhibitory (MIC) Concentration 4% (Saccharomyces cerevisiae; Sodium lauryl sulfate 200 ppm) | Lethal (MLC) Concentration 4% (Saccharomyces cerevisiae; Sodium lauryl sulfate 200 ppm) | MIC, Concentration of Lactic Esters 0.5% (Pseudomonas aeruginosa; SDS 50 ppm) | MIC, Concentration of Lactic Esters 0.5% (Pseudomonas aeruginosa; SDS 100 ppm) | MIC, Concentration of Lactic Esters 0.5% (Pseudomonas aeruginosa; SDS 200 ppm) | MIC, Concentration of Lactic Esters 1% (Pseudomonas aeruginosa; SDS 50 ppm) | MIC, Concentration of Lactic Esters 1% (Pseudomonas aeruginosa; SDS 100 ppm) | MIC, Concentration of Lactic Esters 1% (Pseudomonas aeruginosa; SDS 200 ppm) | MIC, Concentration of Lactic Esters 2% (Pseudomonas aeruginosa; SDS 0.0 ppm) | MIC, Concentration of Lactic Esters 2% (Pseudomonas aeruginosa; SDS 50 ppm) | MIC, Concentration of Lactic Esters 2% (Pseudomonas aeruginosa; SDS 100 ppm) | MIC, Concentration of Lactic Esters 2% (Pseudomonas aeruginosa; SDS 200 ppm) | MLC, Concentration of Ethyl lactate 2% (Pseudomonas aeruginosa; first MLC line of organism) | MIC, Concentration of Lactic Esters 3% (Pseudomonas aeruginosa; SDS 0.0 ppm) | MIC, Concentration of Lactic Esters 3% (Pseudomonas aeruginosa; SDS 50 ppm) | MIC, Concentration of Lactic Esters 3% (Pseudomonas aeruginosa; SDS 100 ppm) | MIC, Concentration of Lactic Esters 3% (Pseudomonas aeruginosa; SDS 200 ppm) | MLC, Concentration of Ethyl lactate 3% (Pseudomonas aeruginosa; first MLC line of organism) | MIC, Concentration of Lactic Esters 4% (Pseudomonas aeruginosa; SDS 0.0 ppm) | MIC, Concentration of Lactic Esters 4% (Pseudomonas aeruginosa; SDS 50 ppm) | MIC, Concentration of Lactic Esters 4% (Pseudomonas aeruginosa; SDS 100 ppm) | MIC, Concentration of Lactic Esters 4% (Pseudomonas aeruginosa; SDS 200 ppm) | MLC, Concentration of Ethyl lactate 4% (Pseudomonas aeruginosa; first MLC line of organism) | MLC, Concentration of Ethyl lactate 4% (Pseudomonas aeruginosa; second MLC line of organism) | MIC, Concentration of Lactic Esters 5% (Pseudomonas aeruginosa; SDS 0.0 ppm) | MIC, Concentration of Lactic Esters 5% (Pseudomonas aeruginosa; SDS 50 ppm) | MIC, Concentration of Lactic Esters 5% (Pseudomonas aeruginosa; SDS 100 ppm) | MIC, Concentration of Lactic Esters 5% (Pseudomonas aeruginosa; SDS 200 ppm) | MLC, Concentration of Ethyl lactate 5% (Pseudomonas aeruginosa; first MLC line of organism) | MLC, Concentration of Ethyl lactate 5% (Pseudomonas aeruginosa; second MLC line of organism) | MLC, Concentration of Ethyl lactate 2% (E. coli 0157;H7; 2%, first MLC line of organism) | MLC, Concentration of Ethyl lactate 3% (E. coli 0157;H7; 3%, first MLC line of organism) | MLC, Concentration of Ethyl lactate 3% (E. coli 0157;H7; [4]) | MIC, growth at 4% (E. coli 0157;H7; 4%, Table 4) | MLC, Concentration of Ethyl lactate 4% (E. coli 0157;H7; 4%, first MLC line of organism) | MLC, Concentration of Ethyl lactate 4% (E. coli 0157;H7; [5]) | MIC, growth at 5% (E. coli 0157;H7; 5%, Table 4) | MLC, Concentration of Ethyl lactate 5% (E. coli 0157;H7; 5%, first MLC line of organism) | MLC, Concentration of Ethyl lactate 5% (E. coli 0157;H7; [6]) | MIC, growth at 4% (Salmonella typhi; 4%) | MIC, growth at 5% (Salmonella typhi; 5%) | MLC, Concentration of Ethyl lactate 5% (Staphylococcus aureus; 5%, first MLC line of organism) | MLC, Concentration of Ethyl lactate 4% (Salmonella typhimurium; first MLC line of organism) | MLC, Concentration of Ethyl lactate 5% (Salmonella typhimurium; first MLC line of organism)
+: Lethal (MLC) Concentration 1% (Saccharomyces cerevisiae) | Inhibitory (MIC) Concentration 1% (Saccharomyces cerevisiae; 48 hrs, 25° C) | Inhibitory (MIC) Concentration 1% (Saccharomyces cerevisiae; Sodium lauryl sulfate 200 ppm) | Lethal (MLC) Concentration 1% (Saccharomyces cerevisiae; Sodium lauryl sulfate 200 ppm) | Lethal (MLC) Concentration 1.5% (Saccharomyces cerevisiae) | Lethal (MLC) Concentration 1.5% (Saccharomyces cerevisiae; Sodium lauryl sulfate 200 ppm) | MIC, Concentration of Lactic Esters 0.5% (Pseudomonas aeruginosa; SDS 0.0 ppm) | MLC, Concentration of Ethyl lactate 0.5% (Pseudomonas aeruginosa; first MLC line of organism) | MLC, Concentration of Ethyl lactate 0.5% (Pseudomonas aeruginosa; second MLC line of organism) | MIC, Concentration of Lactic Esters 1% (Pseudomonas aeruginosa; SDS 0.0 ppm) | MLC, Concentration of Ethyl lactate 1% (Pseudomonas aeruginosa; first MLC line of organism) | MLC, Concentration of Ethyl lactate 1% (Pseudomonas aeruginosa; second MLC line of organism) | MLC, Concentration of Ethyl lactate 2% (Pseudomonas aeruginosa; second MLC line of organism) | MLC, Concentration of Ethyl lactate 3% (Pseudomonas aeruginosa; second MLC line of organism) | MLC, Concentration of Ethyl lactate 0.5% (Listeria monocytogenes; first MLC line of organism) | MLC, Concentration of Ethyl lactate 0.5% (Listeria monocytogenes; second MLC line of organism) | MIC, growth at 1% (Listeria monocytogenes; 1%, Table 4) | MLC, Concentration of Ethyl lactate 1% (Listeria monocytogenes; 1%, first MLC line of organism) | MLC, Concentration of Ethyl lactate 1% (Listeria monocytogenes; [2]) | MIC, growth at 2% (Listeria monocytogenes; 2%, Table 4) | MLC, Concentration of Ethyl lactate 2% (Listeria monocytogenes; 2%, first MLC line of organism) | MLC, Concentration of Ethyl lactate 2% (Listeria monocytogenes; [3]) | MIC, growth at 3% (Listeria monocytogenes; 3%, Table 4) | MLC, Concentration of Ethyl lactate 3% (Listeria monocytogenes; 3%, first MLC line of organism) | MLC, Concentration of Ethyl lactate 3% (Listeria monocytogenes; [4]) | MIC, growth at 4% (Listeria monocytogenes; 4%, Table 4) | MLC, Concentration of Ethyl lactate 4% (Listeria monocytogenes; 4%, first MLC line of organism) | MLC, Concentration of Ethyl lactate 4% (Listeria monocytogenes; [5]) | MIC, growth at 5% (Listeria monocytogenes; 5%, Table 4) | MLC, Concentration of Ethyl lactate 5% (Listeria monocytogenes; 5%, first MLC line of organism) | MLC, Concentration of Ethyl lactate 5% (Listeria monocytogenes; [6]) | MLC, Concentration of Ethyl lactate 0.5% (E. coli 0157;H7; first MLC line of organism) | MLC, Concentration of Ethyl lactate 0.5% (E. coli 0157;H7; second MLC line of organism) | MIC, growth at 1% (E. coli 0157;H7; 1%, Table 4) | MLC, Concentration of Ethyl lactate 1% (E. coli 0157;H7; 1%, first MLC line of organism) | MLC, Concentration of Ethyl lactate 1% (E. coli 0157;H7; [2]) | MIC, growth at 2% (E. coli 0157;H7; 2%, Table 4) | MLC, Concentration of Ethyl lactate 2% (E. coli 0157;H7; [3]) | MIC, growth at 3% (E. coli 0157;H7; 3%, Table 4) | MIC, growth at 1% (Salmonella typhi; 1%) | MIC, growth at 2% (Salmonella typhi; 2%) | MIC, growth at 3% (Salmonella typhi; 3%) | MLC, Concentration of Ethyl lactate 0.5% (Staphylococcus aureus; first MLC line of organism) | MLC, Concentration of Ethyl lactate 0.5% (Staphylococcus aureus; second MLC line of organism) | MIC, growth at 1% (Staphylococcus aureus; 1%, Table 4) | MLC, Concentration of Ethyl lactate 1% (Staphylococcus aureus; 1%, first MLC line of organism) | MLC, Concentration of Ethyl lactate 1% (Staphylococcus aureus; [2]) | MIC, growth at 2% (Staphylococcus aureus; 2%, Table 4) | MLC, Concentration of Ethyl lactate 2% (Staphylococcus aureus; 2%, first MLC line of organism) | MLC, Concentration of Ethyl lactate 2% (Staphylococcus aureus; [3]) | MIC, growth at 3% (Staphylococcus aureus; 3%, Table 4) | MLC, Concentration of Ethyl lactate 3% (Staphylococcus aureus; 3%, first MLC line of organism) | MLC, Concentration of Ethyl lactate 3% (Staphylococcus aureus; [4]) | MIC, growth at 4% (Staphylococcus aureus; 4%, Table 4) | MLC, Concentration of Ethyl lactate 4% (Staphylococcus aureus; 4%, first MLC line of organism) | MLC, Concentration of Ethyl lactate 4% (Staphylococcus aureus; [5]) | MIC, growth at 5% (Staphylococcus aureus; 5%, Table 4) | MLC, Concentration of Ethyl lactate 5% (Staphylococcus aureus; [6]) | MLC, Concentration of Ethyl lactate 0.5% (Salmonella typhimurium; first MLC line of organism) | MLC, Concentration of Ethyl lactate 0.5% (Salmonella typhimurium; second MLC line of organism) | MLC, Concentration of Ethyl lactate 1% (Salmonella typhimurium; first MLC line of organism) | MLC, Concentration of Ethyl lactate 1% (Salmonella typhimurium; second MLC line of organism) | MLC, Concentration of Ethyl lactate 2% (Salmonella typhimurium; first MLC line of organism) | MLC, Concentration of Ethyl lactate 2% (Salmonella typhimurium; second MLC line of organism) | MLC, Concentration of Ethyl lactate 3% (Salmonella typhimurium; first MLC line of organism) | MLC, Concentration of Ethyl lactate 3% (Salmonella typhimurium; second MLC line of organism) | MLC, Concentration of Ethyl lactate 4% (Salmonella typhimurium; second MLC line of organism) | MLC, Concentration of Ethyl lactate 5% (Salmonella typhimurium; second MLC line of organism)

CC(=O)C1C(=O)C=C(C)OC1=O (centres unmarked) [dehydroacetic acid]
clear solution: solubility in ethyl lactate (appearance of solution) [1]
